From patent publication US12485075B2, “Particulates of polyphenolics and dispersions thereof” (priority 2020, dated 2025)

Key:
human skin explants [1] = experiment: Intracellular ROS scavenging activity assay, HEV exposure; assay type: cell-based; conditions: HEV exposure 412 nm and 450 nm
Protocol: Intracellular Reactive Oxygen Species (ROS) Scavenging Activity Assays were conducted on human skin explants from donors of skin Phototype II. The skin explants were treated with, a non-fluorescent probe, 2′, 7′-Dichlorofluorescein diacetate (DCFHDA). […] DCFH-DA is taken up by cells by passive diffusion and DCFH-DA is deacetylated by cellular esterases to non-fluorescent DCFH, which is trapped within cells. The fluorescent 2′, 7′-dichlorofluorescein (DCF) is generated upon enzymatic reduction and subsequent oxidation by ROS. Fluorescence was measured and correlates to the test item's ability to scavenge ROS. The results are presented as percentage reduction of ROS relative to the level generated following UVA/UVB exposure of unprotected skin.

human skin explants [2] = experiment: Intracellular ROS scavenging activity assay, solar simulated UVA/UVB exposure; assay type: cell-based
Protocol: Intracellular Reactive Oxygen Species (ROS) Scavenging Activity Assays were conducted on human skin explants from donors of skin Phototype II. The skin explants were treated with, a non-fluorescent probe, 2′, 7′-Dichlorofluorescein diacetate (DCFHDA). After treatment, the skin explants were treated with the moisturizer compositions at a dose of 2 mg/cm^2 and exposed to solar simulated UVA/UVB at doses of 70 mJ/cm^2 in triplicate. DCFH-DA is taken up by cells by passive diffusion and DCFH-DA is deacetylated by cellular esterases to non-fluorescent DCFH, which is trapped within cells. The fluorescent 2′, 7′-dichlorofluorescein (DCF) is generated upon enzymatic reduction and subsequent oxidation by ROS. Fluorescence was measured and correlates to the test item's ability to scavenge ROS. The results are presented as percentage reduction of ROS relative to the level generated following UVA/UVB exposure of unprotected skin. The results of these studies are shown in the Table below and presented as percentage reduction in intracellular ROS relative to unprotected skin. […] These associated skin protective effects include but are not limited to suppressing lipid peroxidation in the skin, preventing or reducing the appearance of lines and wrinkles in skin, preventing loss of elasticity of skin, preventing thinning of skin, and preventing pigment darkening of skin.

[3] = cited from earlier work

Row | SMILES | reduction in ROS, result in words (human skin explants [1]) | reduction in ROS, result in words (human skin explants [2]) | solubility in bulk oils, such as soybean oil [3] [% by weigh]
1 | Cc1c(C)c2c(c(C)c1O)CCC(C)(CCCC(C)CCCC(C)CCCC(C)C)O2 (racemic) [DL-alpha-tocopherol] | no statistically significant reduction in ROS | statistically significant reduction in ROS | –
2 | C[C@@H]1O[C@@H](OC[C@H]2O[C@@H](Oc3c(-c4ccc(O)c(O)c4)oc4cc(O)cc(O)c4c3=O)[C@H](O)[C@@H](O)[C@@H]2O)[C@H](O)[C@H](O)[C@H]1O [Rutin, quercetin-3-O-rutinoside] | – | – | 0.1
